# Where two headings read alike, the source gives them in different places.
# Experiments:
# Pim-1 [1] = target: T1, Pim-1 (Homo sapiens (Human), UniProt P11309); experiment: Pim-Mn enzyme assay (HTRF, 384-well), Pim-1; assay type: biochemical; conditions: read-out: Pim-1-Mn IC50 IP
# Pim-1 [2] = target: T1, Pim-1; experiment: Pim enzyme assay (HTRF, 96-well), Pim-1; assay type: biochemical; conditions: full length recombinant Pim-1, biotinylated-BAD (S112) peptide, 10-point curve, 2 h RT, read-out: Pim-1 IC50 IP
# Procedure, shortened: (§1)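 HTRF detection of biotinylated BAD (S112) phosphorylation by full-length recombinant His-tagged Pim-1 or Pim-2 in 60 mM Hepes pH 7.0, 0.05% BSA, 2 mM DTT at 22 °C: 2 h for Pim-1, 45 min for Pim-2. Stopped with EDTA; IC50 from 4-parameter logistic fit of percent of control.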
# [3] = system: KMS-12-BM myeloma cell line; experiment: Pim KMS-12 cell assay (phospho-BAD S112 / total BAD, MSD); conditions: Homo sapiens, KMS-12-BM
# Pim-2 [4] = target: T2, Pim-2 (Homo sapiens (Human), UniProt Q9P1W9); experiment: Pim-Mn enzyme assay (HTRF, 384-well), Pim-2; assay type: biochemical; conditions: read-out: Pim-2-Mn IC50 IP
# Pim-2 [5] = target: T2, Pim-2; experiment: Pim enzyme assay (HTRF, 96-well), Pim-2; assay type: biochemical; conditions: full length recombinant Pim-2, biotinylated-BAD (S112) peptide, 10-point curve, 45 min RT, read-out: Pim-2 IC50 IP
# Procedure, shortened: as §1
# [6] = read-out: KMS-12-BM IC50 IP, KMS-12-BM cells, phospho-BAD (S112) vs total BAD, 1 hour 50 min with compound
# T2 sequence (Q9P1W9 whole entry): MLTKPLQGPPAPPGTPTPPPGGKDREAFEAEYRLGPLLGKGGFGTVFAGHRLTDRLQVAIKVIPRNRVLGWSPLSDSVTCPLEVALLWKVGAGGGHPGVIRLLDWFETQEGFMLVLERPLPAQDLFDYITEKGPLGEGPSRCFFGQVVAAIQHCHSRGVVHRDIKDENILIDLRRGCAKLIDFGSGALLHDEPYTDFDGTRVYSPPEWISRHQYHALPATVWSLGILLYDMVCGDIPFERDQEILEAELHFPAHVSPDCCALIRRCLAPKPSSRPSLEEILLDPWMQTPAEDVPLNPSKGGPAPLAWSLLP
# T1 sequence (P11309 whole entry): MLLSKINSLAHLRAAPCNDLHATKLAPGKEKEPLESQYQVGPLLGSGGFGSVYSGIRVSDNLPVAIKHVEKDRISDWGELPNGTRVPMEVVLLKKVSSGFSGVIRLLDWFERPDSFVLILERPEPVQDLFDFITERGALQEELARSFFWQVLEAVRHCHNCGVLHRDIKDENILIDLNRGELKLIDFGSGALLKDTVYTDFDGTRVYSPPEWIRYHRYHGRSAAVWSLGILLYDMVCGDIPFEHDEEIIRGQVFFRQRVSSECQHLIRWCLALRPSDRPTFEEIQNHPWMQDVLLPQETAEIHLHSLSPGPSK
IC50 (Pim-1 [2]),"IC50 [3, 6]",IC50 (Pim-2 [5]),Compound,IC50 (Pim-1 [1]),IC50 (Pim-2 [4]),IC50 ([3]; read-out: KMS-12-BM IC50 IP)
7.2 nM,511 nM,5.7 nM,"Cc1nc2cccc(-c3cc4c([nH]3)CCNC4=O)c2nc1NC1(C)COC1 [Example 197, 2-(2-methyl-3-((3-methyloxetan-3-yl)amino)quinoxalin-5-yl)-6,7-dihydro-1H-pyrrolo[3,2-c]pyridin-4(5H)-one]",–,–,–
0.3 nM,1390 nM,0.6 nM,"CCN(c1cccnc1)c1ccc2cccc(-c3cc4c([nH]3)CCNC4=O)c2n1 [Example 32, 2-(2-(ethyl(pyridin-3-yl)amino)quinolin-8-yl)-6,7-dihydro-1H-pyrrolo[3,2-c]pyridin-4(5H)-one]",–,–,–
1.1 nM,76.2 nM,1.3 nM,"Cc1nc2cccc(-c3cc4c([nH]3)CCNC4=O)c2nc1NC(C)(C)C [Example 193, 2-(3-(tert-butylamino)-2-methylquinoxalin-5-yl)-6,7-dihydro-1H-pyrrolo[3,2-c]pyridin-4(5H)-one]",–,–,–
1 nM,2510 nM,12 nM,"O=C1NCCc2[nH]c(-c3cccc4ccc(N[C@H]5CCCNC5)nc34)cc21 [Example 123, (S)-2-(2-(piperidin-3-ylamino)quinolin-8-yl)-6,7-dihydro-1H-pyrrolo[3,2-c]pyridin-4(5H)-one]",–,–,–
3.8 nM,1780 nM,14.7 nM,"Nc1ccc(-c2ccc3cccc(-c4cc5c([nH]4)CCNC5=O)c3n2)c(F)n1 [Example 87, 2-(2-(6-amino-2-fluoropyridin-3-yl)quinolin-8-yl)-6,7-dihydro-1H-pyrrolo[3,2-c]pyridin-4(5H)-one]",–,–,–
2.2 nM,1490 nM,4.3 nM,"CCN(c1ccccc1)c1cnc2cccc(-c3cc4c([nH]3)CCNC4=O)c2n1 [Example 186, 2-(3-(ethyl(phenyl)amino)quinoxalin-5-yl)-6,7-dihydro-1H-pyrrolo[3,2-c]pyridin-4(5H)-one]",–,–,–
1.9 nM,390 nM,2.8 nM,"O=C1NCCc2[nH]c(-c3cccc4ncc(Nc5ccccc5)nc34)cc21 [Example 180, 2-(3-(phenylamino)quinoxalin-5-yl)-6,7-dihydro-1H-pyrrolo[3,2-c]pyridin-4(5H)-one]",–,–,–
1.5 nM,1450 nM,7.7 nM,"O=C1NCCc2[nH]c(-c3cccc4ccc(Nc5cccc(F)c5)nc34)cc21 [Example 45, 2-(2-((3-fluorophenyl)amino)-8-quinolinyl)-1,5,6,7-tetrahydro-4H-pyrrolo[3,2-c]pyridin-4-one]",–,–,–
4.4 nM,953 nM,22.6 nM,"O=C1NCCc2[nH]c(-c3cccc4ccc(NC5CCOCC5)nc34)cc21 [Example 85, 2-(2-((Tetrahydro-2H-pyran-4-yl)amino)quinolin-8-yl)-6,7-dihydro-1H-pyrrolo[3,2-c]pyridin-4(5H)-one]",–,–,–
16.5 nM,12200 nM,62 nM,"O=C1NCCc2[nH]c(-c3cccc4ccc(O[C@H]5CCCNC5)nc34)cc21 [Example 92, (S)-2-(2-(piperidin-3-yloxy)quinolin-8-yl)-6,7-dihydro-1H-pyrrolo[3,2-c]pyridin-4(5H)-one]",–,–,–
7.4 nM,14400 nM,30.5 nM,"O=C1NCCc2[nH]c(-c3cccc4ccc(OC5CCCC5)nc34)cc21 [Example 80, 2-(2-(cyclopentyloxy)quinolin-8-yl)-6,7-dihydro-1H-pyrrolo[3,2-c]pyridin-4(5H)-one]",–,–,–
3.6 nM,5500 nM,19 nM,"O=C1NCCc2[nH]c(-c3cccc4ccc(NC5CCCC5)nc34)cc21 [Example 78, 2-(2-(cyclopentylamino)quinolin-8-yl)-6,7-dihydro-1H-pyrrolo[3,2-c]pyridin-4(5H)-one]",–,–,–
3.7 nM,62.8 nM,2 nM,"Cc1nc2cccc(-c3cc4c([nH]3)CCNC4=O)c2nc1NC1CC1 [Example 194, 2-(3-(cyclopropylamino)-2-methylquinoxalin-5-yl)-6,7-dihydro-1H-pyrrolo[3,2-c]pyridin-4(5H)-one]",–,–,–
1.1 nM,1130 nM,2.9 nM,"Nc1cccc(Nc2ccc3cccc(-c4cc5c([nH]4)CCNC5=O)c3n2)c1 [Example 110, 2-(2-((3-aminophenyl)amino)quinolin-8-yl)-6,7-dihydro-1H-pyrrolo[3,2-c]pyridin-4(5H)-one]",–,–,–
20.6 nM,12200 nM,115 nM,"O=C1NCCc2[nH]c(-c3cccc4ccc(N5CCOCC5)nc34)cc21 [Example 84, 2-(2-morpholinoquinolin-8-yl)-6,7-dihydro-1H-pyrrolo[3,2-c]pyridin-4(5H)-one]",–,–,–
1.2 nM,1170 nM,4.6 nM,"O=C1NCCc2[nH]c(-c3cccc4ccc(Nc5ccccc5F)nc34)cc21 [Example 6, 2-(2-((2-fluorophenyl)amino)quinolin-8-yl)-6,7-dihydro-1H-pyrrolo[3,2-c]pyridin-4(5H)-one]",–,–,–
5.8 nM,371 nM,5.5 nM,"Cc1nc2cccc(-c3cc4c([nH]3)CCNC4=O)c2nc1NC1CCCC1 [Example 130, 2-(3-(cyclopentylamino)-2-methylquinoxalin-5-yl)-6,7-dihydro-1H-pyrrolo[3,2-c]pyridin-4(5H)-one]",–,–,–
5.9 nM,5530 nM,13.9 nM,"O=C1NCCc2[nH]c(-c3cccc4ccc(Oc5ccccc5)nc34)cc21 [Example 37, 2-(2-phenoxyquinolin-8-yl)-6,7-dihydro-1H-pyrrolo[3,2-c]pyridin-4(5H)-one]",–,–,–

Compound,IC50 (Pim-1 [2]),"IC50 [3, 6]",IC50 (Pim-2 [5]),IC50 (Pim-1 [1]),IC50 (Pim-2 [4]),IC50 ([3]; read-out: KMS-12-BM IC50 IP)
"Cc1nc2cccc(-c3cc4c([nH]3)CCNC4=O)c2nc1NC1CC(F)(F)C1 [Example 145, 2-(3-((3,3-difluorocyclobutyl)amino)-2-methylquinoxalin-5-yl)-6,7-dihydro-1H-pyrrolo[3,2-c]pyridin-4(5H)-one]",14.2 nM,971 nM,8.9 nM,8.7 nM,4.6 nM,–
"CN(c1ccccc1)c1ccc2cccc(-c3cc4c([nH]3)CCNC4=O)c2n1 [Example 4, 2-(2-(methyl(phenyl)amino)quinolin-8-yl)-6,7-dihydro-1H-pyrrolo[3,2-c]pyridin-4(5H)-one]",2.1 nM,–,6.8 nM,–,–,2340 nM
"Cc1cccc(C)c1Nc1ccc2cccc(-c3cc4c([nH]3)CCNC4=O)c2n1 [Example 102, 2-(2-((2,6-dimethylphenyl)amino)quinolin-8-yl)-6,7-dihydro-1H-pyrrolo[3,2-c]pyridin-4(5H)-one]",7.6 nM,–,73.9 nM,–,–,10400 nM
"Cc1cccc(Nc2ccc3cccc(-c4cc5c([nH]4)CCNC5=O)c3n2)c1 [Example 44, 2-(2-((3-methylphenyl)amino)-8-quinolinyl)-1,5,6,7-tetrahydro-4H-pyrrolo[3,2-c]pyridin-4-one]",7.2 nM,–,29.2 nM,–,–,13100 nM
"O=C1NCCc2[nH]c(-c3cccc4ccc(Nc5ccc(Cl)cc5)nc34)cc21 [Example 15, 2-(2-((4-chlorophenyl)amino)quinolin-8-yl)-6,7-dihydro-1H-pyrrolo[3,2-c]pyridin-4(5H)-one]",4 nM,–,20.4 nM,–,–,3230 nM

# Source: patent US9394297B2, “Amides as pim inhibitors” (AMGEN INC., priority 2012, dated 2016)
